Here are results for one molecule from PubChem BioAssay AID463151 (The Scripps Research Institute Molecular Screening Center, 2010).

SMILES strings stand for the structures. The source made the active and inactive calls. The rule behind the calls is not given here.

This experiment has as its target Nuclear receptor ROR-gamma (Homo sapiens) (UniProt P51449). Briefly: RORG inhibitor potency, late-stage follow-up, selectivity assay for RORA inverse agonist project, cell-based, luminescence, dose response (AID 463151). To be noted: cell-based RORG luciferase reporter.

Chain of Nuclear receptor ROR-gamma (Homo sapiens) (P51449 whole entry, looked up): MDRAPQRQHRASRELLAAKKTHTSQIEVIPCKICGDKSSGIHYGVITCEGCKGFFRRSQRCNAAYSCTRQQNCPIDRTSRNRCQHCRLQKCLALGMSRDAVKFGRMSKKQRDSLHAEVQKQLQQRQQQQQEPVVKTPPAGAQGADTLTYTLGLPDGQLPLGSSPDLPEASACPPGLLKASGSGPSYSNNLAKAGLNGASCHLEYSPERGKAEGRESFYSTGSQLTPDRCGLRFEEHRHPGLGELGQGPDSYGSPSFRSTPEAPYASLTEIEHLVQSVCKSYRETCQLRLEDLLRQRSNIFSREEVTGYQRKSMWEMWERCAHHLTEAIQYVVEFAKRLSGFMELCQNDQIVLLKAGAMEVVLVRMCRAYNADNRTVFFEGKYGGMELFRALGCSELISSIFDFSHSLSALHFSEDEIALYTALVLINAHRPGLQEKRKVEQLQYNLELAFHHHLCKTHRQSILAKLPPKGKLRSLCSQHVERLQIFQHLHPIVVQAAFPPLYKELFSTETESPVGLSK

Consider `O=S(=O)(Nc1ccc(C(O)(C(F)(F)F)C(F)(F)F)cc1)c1cccs1`, for which the IC50 is > 10 µM (inactive).
